target: T1, ERR1 (also known as ERR-α or ERR-1) (Homo sapiens, UniProt P11474); experiment: TR-FRET assay (disruption of co-activator peptide binding); assay type: biochemical; conditions: 6His-tagged ERR1 LBD, GST-hSRC2 co-activator polypeptide; average of 3 independent experiments
T1 sequence (P11474 193-421 limits assumed): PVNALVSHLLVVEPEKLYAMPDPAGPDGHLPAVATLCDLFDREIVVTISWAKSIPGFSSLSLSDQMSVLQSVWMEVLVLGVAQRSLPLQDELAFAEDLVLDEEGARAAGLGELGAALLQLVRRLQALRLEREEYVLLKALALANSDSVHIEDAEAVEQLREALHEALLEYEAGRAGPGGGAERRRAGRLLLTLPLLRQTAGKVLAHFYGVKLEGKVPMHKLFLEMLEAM
Method: Time-Resolved Fluorescence Resonance Energy Transfer (TR-FRET) experiments were performed to examine the functional response of ERR1 (also known as ERR-α or ERR-1) ligands. The TR-FRET assay described herein relied on the conformation of ERR1 for binding to a co-activator peptide: when a test compound binds to ERR1 and alters its conformation, it can disrupt the binding of the co-activator peptide. The components of this homogeneous secondary assay included: the ^6His-tagged-ERR1LBD, a GST-labeled-hSRC2 co-activator polypeptide and a fluorescent donor/acceptor pair from CIS bio international htrf/bioassays (Bedford, Mass.) using both an α-GST Europium Cryptate (Eu) label and an α^6His-XL665 (allophycocyanin) fluorophore.
For TR-FRET measurements, the reaction was buffered in 25 mM Tris pH 8, 2.5 mM Hepes, 20 mM KCl, 1 mM DTT, and 0.05 mg/mL BSA (-lipids). The final concentrations of reagents were 6 nM of ERR1LBD, 6 nM GST-SRC-2 peptide, 30 nM Eu cryptate, and 7.5 nM XL665. Reactions were allowed to reach equilibrium at 25° C. for 4-18 hours before collecting data on the Analyst from LJL Biosystems (Molecular Devices Sunnyvale, Calif.). As a time-resolved method, the samples were excited at […] and emission was collected for 1 ms at both 615 and 665 nm with delays of 400 and 75 μs, respectively. Dose response curves were fitted using a hyperbolic equation and the data reported is the average of 3 independent experiments.

| Structure (SMILES) | EC50 |
| --- | --- |
| O=C1N=C(N2CCC(n3cncn3)CC2)S/C1=C\c1ccc2c(cnn2Cc2ccc(Cl)cc2C(F)(F)F)c1 [Example 158, 5-[1-(4-Chloro-2-trifluoromethyl-benzyl)-1H-indazol-5-ylmethylene]-2-(4-[1,2,4]triazol-1-yl-piperidin-1-yl)-thiazol-4-one] | 32 nM |
| O=C1N=C(N2C[C@@H](F)C[C@H]2C(=O)O)S/C1=C\c1ccc2c(cnn2Cc2ccc(Cl)cc2C(F)(F)F)c1 [Example 189, 1-[5-({1-[4-Chloro-2-(trifluoromethyl)benzyl]-1H-indazol-5-yl}methylidene)-4-oxo-4,5-dihydro-1,3-thiazol-2-yl]-4-(S)-fluoro-L-proline] | 24 nM |
| CC[C@H]1CN(C2=NC(=O)/C(=C/c3ccc4c(cnn4Cc4ccc(C(F)(F)F)cc4C(F)(F)F)c3)S2)CCN1 [Example 124, 5-[1-(2,4-Bis-trifluoromethyl-benzyl)-1H-indazol-5-ylmethylene]-2-(3-ethyl-piperazin-1-yl)-thiazol-4-one] | 9 nM |
| CN1CCN(C2=NC(=O)/C(=C/c3ccc4c(cnn4Cc4ccc(C(F)(F)F)cc4C4CC4)c3)S2)CC1 [Example 29, 5-[1-(2-Cyclopropyl-4-trifluoromethyl-benzyl)-1H-indazol-5-ylmethylene]-2-(4-methyl-piperazin-1-yl)-thiazol-4-one] | 38 nM |
| COc1ccc(Cn2ncc3cc(/C=C4\SC(N5CC(C(=O)O)C5)=NC4=O)ccc32)c(C(F)(F)F)c1 [Example 33, 1-{5-[1-(4-M ethoxy-2-trifluoromethyl-benzyl)-1H-indazol-5-ylmethylene]-4-oxo-4,5-dihydro-thiazol-2-yl}-azetidine-3-carboxylic acid] | 4.4 nM |
| O=C1N=C(N2CC(F)C2)S/C1=C\c1ccc2c(cnn2Cc2ccc(Cl)cc2C(F)(F)F)c1 [Example 149, 5-[1-(4-Chloro-2-trifluoromethyl-benzyl)-1H-indazol-5-ylmethylene]-2-(3-fluoro-azetidin-1-yl)-thiazol-4-one] | 55 nM |
| O=C1N=C(N2CCC[C@@H]2C(=O)O)S/C1=C\c1ccc2c(cnn2Cc2ccc(Cl)cc2C(F)(F)F)c1 [Example 46, 1-{5-[1-(4-Chloro-2-trifluoromethyl-benzyl)-1H-indazol-5-ylmethylene]-4-oxo-4,5-dihydro-thiazol-2-yl}-pyrrolidine-2-(R)-carboxylic acid] | 27 nM |
| CS(=O)(=O)c1ccc(Cn2ncc3cc(/C=C4\SC(N5CCN(CCO)CC5)=NC4=O)ccc32)c(C(F)(F)F)c1 [Compound 16, 2-[4-(2-Hydroxy-ethyl)-piperazin-1-yl]-5-[1-(4-methanesulfonyl-2-trifluoromethyl-benzyl)-1H-indazol-5-ylmethylene]-thiazol-4-one] | 450 nM |
| C[C@@H]1CN(C)CCN1C1=NC(=O)/C(=C/c2ccc3c(cnn3Cc3ccc(Cl)cc3C(F)(F)F)c2)S1 [Example 193, 5-({1-[4-Chloro-2-(trifluoromethyl)benzyl]-1H-indazol-5-yl}methylidene)-2-(2-(R),4-dimethylpiperazin-1-yl)-1,3-thiazol-4(5H)-one] | 11 nM |
| CCOC(=O)C1(N)CCN(C2=NC(=O)/C(=C/c3ccc4c(cnn4Cc4ccc(Cl)cc4C(F)(F)F)c3)S2)CC1 [Example 156, 4-Amino-1-{5-[1-(4-chloro-2-trifluoromethyl-benzyl)-1H-indazol-5-ylmethylene]-4-oxo-4,5-dihydro-thiazol-2-yl}-piperidine-4-carboxylic acid ethyl ester] | 58 nM |
| O=C(O)CN1CCN(C2=NC(=O)/C(=C/c3ccc4c(cnn4Cc4ccc(Cl)cc4C(F)(F)F)c3)S2)CC1 [Example 117] | 8.3 nM |
| COc1ccc(Cn2ncc3cc(/C=C4\SC(N5CCC[C@@H]5C(=O)O)=NC4=O)ccc32)c(C(F)(F)F)c1 [Example 45, 1-{5-[1-(4-M ethoxy-2-trifluoromethyl-benzyl)-1H-indazol-5-ylmethylene]-4-oxo-4,5-dihydro-thiazol-2-yl}-pyrrolidine-2-(R)-carboxylic acid] | 34 nM |
| O=C1N=C(N2CCN[C@@H](CO)C2)S/C1=C\c1ccc2c(c1)c(Cl)nn2Cc1ccc(Cl)cc1C(F)(F)F [Example 187, 5-[3-Chloro-1-(4-chloro-2-trifluoromethyl-benzyl)-1H-indazol-5-ylmethylene]-2-(3-(R)-hydroxymethyl-piperazin-1-yl)-thiazol-4-one] | 12.7 nM |
| O=C1N=C(N2CCC(n3ccnc3)CC2)S/C1=C\c1ccc2c(cnn2Cc2ccc(Cl)cc2C(F)(F)F)c1 [Example 159, 5-[1-(4-Chloro-2-trifluoromethyl-benzyl)-1H-indazol-5-ylmethylene]-2-(4-imidazol-1-yl-piperidin-1-yl)-thiazol-4-one] | 36 nM |
| O=C1CN(C2=NC(=O)/C(=C/c3ccc4c(cnn4Cc4ccc(Cl)cc4C(F)(F)F)c3)S2)C1 [Example 102, 5-[1-(4-Chloro-2-trifluoromethyl-benzyl)-1H-indazol-5-ylmethylene]-2-(3-oxo-azetidin-1-yl)-thiazol-4-one] | 22 nM |
| O=C1N=C(N2CCNC3(CC3)C2)S/C1=C\c1ccc2c(cnn2Cc2ccc(C(F)(F)F)cc2C(F)(F)F)c1 [Example 179, 5-[1-(2,4-Bis-trifluoromethyl-benzyl)-1H-indazol-5-ylmethylene]-2-(4,7-diaza-spiro[2.5]oct-7-yl)-thiazol-4-one] | 17 nM |
| Cc1nn(Cc2ccc(C(F)(F)F)cc2C(F)(F)F)c2ccc(/C=C3\SC(N4CCN[C@@H](CO)C4)=NC3=O)cc12 [Example 182, 5-[1-(2,4-Bis-trifluoromethyl-benzyl)-3-methyl-1H-indazol-5-ylmethylene]-2-(3-(R)-hydroxymethyl-piperazin-1-yl)-thiazol-4-one] | 10.8 nM |

Continued, values first:

| EC50 | Structure (SMILES) |
| --- | --- |
| 16 nM | CN1CCN(C2=NC(=O)/C(=C/c3ccc4c(cnn4Cc4ccc(Cl)cc4C(F)(F)F)c3)S2)C[C@@H]1CO [Example 196, 5-({1-[4-Chloro-2-(trifluoromethyl)benzyl]-1H-indazol-5-yl}methylidene)-2-[3-(R)-(hydroxymethyl)-4-methylpiperazin-1-yl]-1,3-thiazol-4(5H)-one] |
| 20 nM | CN1CCN(C2=NC(=O)/C(=C/c3ccc4c(c3)c(C#N)nn4Cc3ccc(Cl)cc3C(F)(F)F)S2)CC1(C)C [Example 222, 1-[4-Chloro-2-(trifluoromethyl)benzyl]-5-{[4-oxo-2-(3,3,4-trimethylpiperazin-1-yl)-1,3-thiazol-5(4H)-ylidene]methyl}-1H-indazole-3-carbonitrile] |
| 590 nM | O=C1N=C(N2CCO[C@H](CO)C2)S/C1=C\c1ccc2c(cnn2Cc2ncccc2C(F)(F)F)c1 [Example 281, 2-[(2S)-2-(Hydroxymethyl)morpholin-4-yl]-5-[(1-{[3-(trifluoromethyl)pyridin-2-yl]methyl}-1H-indazol-5-yl)methylidene]-1,3-thiazol-4(5H)-one] |
| 24 nM | Cc1nn(Cc2ccc(Cl)cc2C(F)(F)F)c2ccc(/C=C3\SC(N4CCC(C(=O)O)CC4)=NC3=O)cc12 [Example 276, 1-[5-({1-[4-Chloro-2-(trifluoromethyl)benzyl]-3-methyl-1H-indazol-5-yl}methylidene)-4-oxo-4,5-dihydro-1,3-thiazol-2-yl]piperidine-4-carboxylic acid] |
| 8 nM | CNC(=O)[C@H]1CN(C2=NC(=O)/C(=C/c3ccc4c(cnn4Cc4ccc(Cl)cc4C(F)(F)F)c3)S2)CCN1 [Example 226, (2R)-4-[5-({1-[4-Chloro-2-(trifluoromethyl)benzyl]-1H-indazol-5-yl}methylidene)-4-oxo-4,5-dihydro-1,3-thiazol-2-yl]-N-methylpiperazine-2-carboxamide] |
| 48 nM | O=C1N=C(N2CCN(C(=O)C3CC3)[C@@H](CO)C2)S/C1=C\c1ccc2c(cnn2Cc2ccc(C(F)(F)F)cc2C(F)(F)F)c1 [Example 215, 5-({1-[2,4-Bis(trifluoromethyl)benzyl]-1H-indazol-5-yl}methylidene)-2-[4-(cyclopropylcarbonyl)-3-(R)-(hydroxymethyl)piperazin-1-yl]-1,3-thiazol-4(5H)-one] |
| 6 nM | COC[C@@H]1CN(C2=NC(=O)/C(=C/c3ccc4c(cnn4Cc4ccc(Cl)cc4C(F)(F)F)c3)S2)CCN1 [Example 209, 5-({1-[4-Chloro-2-(trifluoromethyl)benzyl]-1H-indazol-5-yl}methylidene)-2-[3-(S)-(methoxymethyl)piperazin-1-yl]-1,3-thiazol-4(5H)-one] |
| 17 nM | Cc1nn(Cc2ccc(Cl)cc2C(F)(F)F)c2ccc(/C=C3\SC(N4CCN(C)C(C)(C)C4)=NC3=O)cc12 [Example 278, 5-({1-[4-Chloro-2-(trifluoromethyl)benzyl]-3-methyl-1H-indazol-5-yl}methylidene)-2-(3,3,4-trimethylpiperazin-1-yl)-1,3-thiazol-4(5H)-one] |

— patent US8399681B2, “Substituted aminothiazolone indazoles as estrogen related receptor-alpha modulators” (Janssen Pharmaceutica NV, priority 2009, dated 2013)
